Data taken from ChEMBL document CHEMBL4813985, “Lead optimization generates selenium-containing miconazole CYP51 inhibitors with improved pharmacological profile for the treatment of fungal infections” (Eur J Med Chem, 2021).
≈ marks a conversion by molar mass, not a printed value.

Legend:
[1] = system: Candida albicans; experiment: Antifungal activity against Candida albicans ATCC SC5314 measured after 24 hrs by broth microdilution assay; assay type: functional
[2] = system: Cryptococcus neoformans; experiment: Antifungal activity against Cryptococcus neoformans CMGCC2.3161 measured after 72 hrs by broth microdilution assay; assay type: functional
[3] = system: Pichia kudriavzevii; experiment: Antifungal activity against Candida krusei AS2.1045 measured after 24 hrs by broth microdilution assay; assay type: functional
[4] = system: Nakaseomyces glabratus; experiment: Antifungal activity against Candida glabrata measured after 24 hrs by broth microdilution assay; assay type: functional
[5] = system: Candida parapsilosis; experiment: Antifungal activity against Candida parapsilosis ATCC 22019 measured after 24 hrs by broth microdilution assay; assay type: functional; settings: Lodderomyces parapsilosis
[6] = system: Aspergillus fumigatus; experiment: Antifungal activity against Aspergillus fumigatus CMGCC3.7795 measured after 72 hrs by broth microdilution assay; assay type: functional
[7] = system: HL-60; experiment: Cytotoxicity against human HL-60 cells assessed as reduction in cell viability incubated for 96 hrs by MTT assay; assay type: cell-based; settings: HL-60, 96 h
[8] = system: MDA-MB-231; experiment: Cytotoxicity against human MDA-MB-231 cells assessed as reduction in cell viability incubated for 96 hrs by MTT assay; settings: MDA-MB-231, 96 h
[9] = Hemolytic activity in rabbit RBC assessed as hemolysis ratio at 1 ug/ml measured after 3 hrs by microplate reader assay relative to control; assay type: ADME, cell-based, Oryctolagus cuniculus, Erythrocyte; settings: rabbit red blood cells (erythrocytes), at 1 µg/mL, read-out: Activity
[10] = Hemolytic activity in rabbit RBC assessed as hemolysis ratio at 2 ug/ml measured after 3 hrs by microplate reader assay relative to control; assay type: ADME, cell-based, Oryctolagus cuniculus, Erythrocyte; settings: rabbit red blood cells (erythrocytes), at 2 µg/mL, read-out: Activity
[11] = Hemolytic activity in rabbit RBC assessed as hemolysis ratio at 4 ug/ml measured after 3 hrs by microplate reader assay relative to control; assay type: ADME, cell-based, Oryctolagus cuniculus, Erythrocyte; settings: rabbit red blood cells (erythrocytes), at 4 µg/mL, read-out: Activity
[12] = Hemolytic activity in rabbit RBC assessed as hemolysis ratio at 16 ug/ml measured after 3 hrs by microplate reader assay relative to control; assay type: ADME, cell-based, Oryctolagus cuniculus, Erythrocyte; settings: rabbit red blood cells (erythrocytes), at 16 µg/mL, read-out: Activity
[13] = Metabolic stability in mouse liver microsomes assessed as half life; assay type: ADME, Microsome
[14] = Metabolic stability in mouse liver microsomes assessed as clearance; assay type: ADME, Microsome; settings: read-out: CLH
[15] = system: Candida albicans; experiment: Fungicidal activity against Candida albicans CPCC400616 assessed as fungal killing incubated for 48 hrs followed by culturing on PDA plate for 24 hrs; assay type: functional; settings: time 72 hrs
[16] = target: T1, Lanosterol 14-alpha demethylase (Candida albicans (strain SC5314 / ATCC MYA-2876) (Yeast), UniProt P10613); experiment: Inhibition of CYP51 in Candida albicans ATCC SC5314 assessed as ergosterol level at 0.03125 ug/ml after 16 hrs by GC-MS analysis (reference value: 98.3%); design: scale not given: the % may be the effect or the level left; settings: candida albicans sc5314, 16 h, at 0.03125 µg/mL
T1 sequence (P10613 whole entry): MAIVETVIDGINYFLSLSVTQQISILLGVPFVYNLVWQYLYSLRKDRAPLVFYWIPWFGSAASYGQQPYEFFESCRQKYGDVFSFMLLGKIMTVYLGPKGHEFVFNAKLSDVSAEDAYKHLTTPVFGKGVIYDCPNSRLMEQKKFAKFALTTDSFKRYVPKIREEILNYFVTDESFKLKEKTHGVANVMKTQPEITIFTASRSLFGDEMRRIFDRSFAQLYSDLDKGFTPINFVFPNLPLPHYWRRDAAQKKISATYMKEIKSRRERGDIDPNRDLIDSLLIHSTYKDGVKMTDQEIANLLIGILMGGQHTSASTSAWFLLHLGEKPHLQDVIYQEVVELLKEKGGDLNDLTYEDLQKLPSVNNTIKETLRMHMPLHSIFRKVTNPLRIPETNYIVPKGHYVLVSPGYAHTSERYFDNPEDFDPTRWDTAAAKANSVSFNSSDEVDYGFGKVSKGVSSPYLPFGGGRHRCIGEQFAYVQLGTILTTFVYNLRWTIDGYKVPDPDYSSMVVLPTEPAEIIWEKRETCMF

[17] = target: T1, Lanosterol 14-alpha demethylase; experiment: Inhibition of CYP51 in Candida albicans ATCC SC5314 assessed as ergosterol level at […] ug/ml after 16 hrs by GC-MS analysis (reference value: 98.3%); design: scale not given: the % may be the effect or the level left; settings: candida albicans sc5314, 16 h, dose 0.125 µg/ml
[18] = target: T1, Lanosterol 14-alpha demethylase; experiment: Inhibition of CYP51 in Candida albicans ATCC SC5314 assessed as ergosterol level at 0.5 ug/ml after 16 hrs by GC-MS analysis (reference value: 98.3%); design: scale not given: the % may be the effect or the level left; settings: candida albicans sc5314, 16 h, at 0.5 µg/mL
[19] = target: T1, Lanosterol 14-alpha demethylase; experiment: Inhibition of CYP51 in Candida albicans ATCC SC5314 assessed as ergosterol level at 2 ug/ml after 16 hrs by GC-MS analysis (reference value: 98.3%); design: scale not given: the % may be the effect or the level left; settings: candida albicans sc5314, 16 h, at 2 µg/mL
[20] = target: T1, Lanosterol 14-alpha demethylase; experiment: Inhibition of CYP51 in Candida albicans ATCC SC5314 assessed as Obtusifoliol level at 0.03125 ug/ml after 16 hrs by GC-MS analysis (reference value: 0%); design: scale not given: the % may be the effect or the level left; settings: candida albicans sc5314, 16 h, at 0.03125 µg/mL
[21] = target: T1, Lanosterol 14-alpha demethylase; experiment: Inhibition of CYP51 in Candida albicans ATCC SC5314 assessed as Obtusifoliol level at […] ug/ml after 16 hrs by GC-MS analysis (reference value: 0%); design: scale not given: the % may be the effect or the level left; settings: candida albicans sc5314, 16 h, dose 0.125 µg/ml
[22] = target: T1, Lanosterol 14-alpha demethylase; experiment: Inhibition of CYP51 in Candida albicans ATCC SC5314 assessed as Obtusifoliol level at 2 ug/ml after 16 hrs by GC-MS analysis (reference value: 0%); design: scale not given: the % may be the effect or the level left; settings: candida albicans sc5314, 16 h, at 2 µg/mL
[23] = target: T1, Lanosterol 14-alpha demethylase; experiment: Inhibition of CYP51 in Candida albicans ATCC SC5314 assessed as Obtusifoliol level at 8 ug/ml after 16 hrs by GC-MS analysis (reference value: 0%); design: scale not given: the % may be the effect or the level left; settings: candida albicans sc5314, 16 h, at 8 µg/mL
[24] = target: T1, Lanosterol 14-alpha demethylase; experiment: Inhibition of CYP51 in Candida albicans ATCC SC5314 assessed as lanosterol level at 0.03125 ug/ml after 16 hrs by GC-MS analysis (reference value: 1.7%); design: scale not given: the % may be the effect or the level left; settings: candida albicans sc5314, 16 h, at 0.03125 µg/mL
[25] = target: T1, Lanosterol 14-alpha demethylase; experiment: Inhibition of CYP51 in Candida albicans ATCC SC5314 assessed as lanosterol level at […] ug/ml after 16 hrs by GC-MS analysis (reference value: 1.7%); design: scale not given: the % may be the effect or the level left; settings: candida albicans sc5314, 16 h, dose 0.125 µg/ml
[26] = target: T1, Lanosterol 14-alpha demethylase; experiment: Inhibition of CYP51 in Candida albicans ATCC SC5314 assessed as lanosterol level at 0.5 ug/ml after 16 hrs by GC-MS analysis (reference value: 1.7%); design: scale not given: the % may be the effect or the level left; settings: candida albicans sc5314, 16 h, at 0.5 µg/mL
[27] = target: T1, Lanosterol 14-alpha demethylase; experiment: Inhibition of CYP51 in Candida albicans ATCC SC5314 assessed as lanosterol level at 2 ug/ml after 16 hrs by GC-MS analysis (reference value: 1.7%); design: scale not given: the % may be the effect or the level left; settings: candida albicans sc5314, 16 h, at 2 µg/mL
[28] = target: T1, Lanosterol 14-alpha demethylase; experiment: Inhibition of CYP51 in Candida albicans ATCC SC5314 assessed as lanosterol level at 8 ug/ml after 16 hrs by GC-MS analysis (reference value: 1.7%); design: scale not given: the % may be the effect or the level left; settings: candida albicans sc5314, 16 h, at 8 µg/mL
[29] = target: T1, Lanosterol 14-alpha demethylase; experiment: Inhibition of CYP51 in Candida albicans ATCC SC5314 assessed as Eburicol level at 0.03125 ug/ml after 16 hrs by GC-MS analysis (reference value: 0%); design: scale not given: the % may be the effect or the level left; settings: candida albicans sc5314, 16 h, at 0.03125 µg/mL
[30] = target: T1, Lanosterol 14-alpha demethylase; experiment: Inhibition of CYP51 in Candida albicans ATCC SC5314 assessed as Eburicol level at 2 ug/ml after 16 hrs by GC-MS analysis (reference value: 0%); design: scale not given: the % may be the effect or the level left; settings: candida albicans sc5314, 16 h, at 2 µg/mL
[31] = target: T1, Lanosterol 14-alpha demethylase; experiment: Inhibition of CYP51 in Candida albicans ATCC SC5314 assessed as Eburicol level at 8 ug/ml after 16 hrs by GC-MS analysis (reference value: 0%); design: scale not given: the % may be the effect or the level left; settings: candida albicans sc5314, 16 h, at 8 µg/mL
[32] = system: Candida albicans; experiment: Anti-biofilm activity in Candida albicans CPCC400616 assessed as inhibition of biofilm formation incubated for 24 hrs with 1.5 hrs precultured fungal suspension by XTT assay; assay type: functional
[33] = system: Candida albicans; experiment: Anti-biofilm activity in Candida albicans CPCC400616 assessed as inhibition of biofilm formation incubated for 24 hrs with 3 hrs precultured fungal suspension by XTT assay; assay type: functional
[34] = system: Candida albicans; experiment: Anti-biofilm activity in Candida albicans CPCC400616 assessed as inhibition of biofilm formation incubated for 24 hrs with 6 hrs precultured fungal suspension by XTT assay; assay type: functional
[35] = system: Candida albicans; experiment: Anti-biofilm activity in Candida albicans CPCC400616 assessed as inhibition of biofilm formation incubated for 24 hrs with 24 hrs precultured fungal suspension by XTT assay; assay type: functional

With Clc1ccc(COC(Cn2ccnc2)c2ccc(Cl)cc2Cl)c(Cl)c1 (stereo not drawn) [MICONAZOLE] the MIC [1] was 0.03 µg/mL (≈ 0.0721 µM), the MIC [2] was 0.5 µg/mL (≈ 1.2 µM) and the MIC [3] was 0.5 µg/mL (≈ 1.2 µM). For the same molecule, the MIC [4] was 0.5 µg/mL (≈ 1.2 µM), the MIC [5] was 0.25 µg/mL (≈ 0.601 µM) and the MIC [6] was 2 µg/mL (≈ 4.81 µM). For the same molecule, the IC50 [7] was 0.8 µM, the IC50 [8] was 17 µM and the hemolysis at 3 h, 1 ug/ml [9] was 0.16%. The hemolysis at 3 h, 2 ug/ml [10] was 8.55%, the hemolysis at 3 h, 4 ug/ml [11] was 81.8% and the hemolysis at 3 h, 16 ug/ml [12] was 94%. The half-life [13] was 8.3 min, the CLint scaled [14] was 660 mL/min/kg and the MFC99 [15] was 2 µg/mL (≈ 4.81 µM). The Activity [16] was 12.2%, the Activity [17] was 8.3% and the Activity [18] was 7.1%. The Activity [19] was 5.2%, the Activity [20] was 7.2% and the Activity [21] was 17.4%. It also gave an Activity [22] of 6.1%, an Activity [23] of 7.8% and an Activity [24] of 10%. The Activity [25] was 9.5%, the Activity [26] was 8.9% and the Activity [27] was 13.6%. It also gave an Activity [28] of 7.4%, an Activity [29] of 70.6% and an Activity [30] of 75.2%. The Activity [31] was 80.7%, the MIC50 [32] was 16 µg/mL (≈ 38.4 µM) and the MIC80 [32] was 128 µg/mL (≈ 308 µM). It also gave an MIC50 [33] of 32 µg/mL (≈ 76.9 µM), an MIC80 [33] of 128 µg/mL (≈ 308 µM) and an MIC50 [34] greater than 128 µg/mL. For the same molecule, the MIC80 [34] was greater than 128 µg/mL, the MIC50 [35] was greater than 128 µg/mL and the MIC80 [35] was greater than 128 µg/mL.

Work on Fc1ccc([Se]C(Cn2ccnc2)c2ccc(F)cc2F)cc1 (stereo not drawn) yielded an MIC [1] of 0.02 µg/mL (≈ 0.0525 µM), an MIC [2] of 0.5 µg/mL (≈ 1.31 µM) and an MIC [3] of 0.5 µg/mL (≈ 1.31 µM). For the same molecule, the MIC [4] was 1 µg/mL (≈ 2.62 µM), the MIC [5] was 0.03 µg/mL (≈ 0.0787 µM) and the MIC [6] was 4 µg/mL (≈ 10.5 µM). It also gave an IC50 [7] of 24.8 µM, an IC50 [8] of 39.5 µM and a hemolysis at 3 h, 1 ug/ml [9] of 0%. The hemolysis at 3 h, 2 ug/ml [10] was 0%, the hemolysis at 3 h, 4 ug/ml [11] was 0% and the hemolysis at 3 h, 16 ug/ml [12] was 100%. It also gave a half-life [13] of 19.4 min, a CLint scaled [14] of 282 mL/min/kg and an MFC99 [15] of 1 µg/mL (≈ 2.62 µM). It also gave an Activity [16] of 8.7%, an Activity [17] of 5.8% and an Activity [18] of 4.9%. The Activity [19] was 2.2%, the Activity [20] was 17% and the Activity [21] was 11.1%. For the same molecule, the Activity [22] was 10.8%, the Activity [23] was 10.2% and the Activity [24] was 4.1%. The Activity [25] was 9.9%, the Activity [26] was 10.1% and the Activity [27] was 9%. The Activity [28] was 5.7%, the Activity [29] was 70.2% and the Activity [30] was 78%. It also gave an Activity [31] of 82%, an MIC50 [32] of 4 µg/mL (≈ 10.5 µM) and an MIC80 [32] of 8 µg/mL (≈ 21 µM). It also gave an MIC50 [33] of 8 µg/mL (≈ 21 µM), an MIC80 [33] of 16 µg/mL (≈ 42 µM) and an MIC50 [34] of 64 µg/mL (≈ 168 µM). The MIC80 [34] was 128 µg/mL (≈ 336 µM), the MIC50 [35] was greater than 128 µg/mL and the MIC80 [35] was greater than 128 µg/mL.
